{
  "source": "ChEMBL document CHEMBL1143504",
  "about": "“Structure-based design of derivatives of tyropeptin A as the potent and selective inhibitors of mammalian 20S proteasome” (Bioorg Med Chem Lett, 2005)",
  "format_in_all_cases": "functional, subcellular",
  "key": {"[1]": {"molecular_target": "20S proteasome", "assay": "Inhibitory concentration to inhibit trypsin-like activity of 20S proteasome from human leukemia HL-60 cells was determined"}, "[2]": {"molecular_target": "20S proteasome", "assay": "Inhibitory concentration to inhibit the PGPH activity of 20S proteasome prepared from human leukemia HL-60 cells was determined"}, "[3]": {"molecular_target": "20S proteasome", "assay": "Inhibitory concentration to inhibit chymotrypsin-like activity of 20S proteasome prepared from human leukemia HL-60 cells was determined"}},
  "note": "Where a SMILES comes first, the peptide text is derived from it. [ ]: non-standard residue; d: D form. The star is where a group is joined. ξ: configuration not given here. ξY = NC(Cc1ccc(O)cc1)C(=O)O; Isovaleryl = CC(C)CC(=O)*; Hexanoyl = CCCCCC(=O)*; PhAc = O=C(Cc1ccccc1)*",
  "data": [
    {"compound": "CC(C)[C@H](NC(=O)[C@H](Cc1ccc(O)cc1)NC(=O)Cc1ccc2ccccc2c1)C(=O)NC(C=O)Cc1ccc(O)cc1", "note": "(stereo partly specified)", "values": [
      {"measurement": "IC50", "setting": "[1]", "result": 0.7, "unit": "µM"},
      {"measurement": "IC50", "setting": "[2]", "result": 4.7, "unit": "µM"},
      {"measurement": "IC50", "setting": "[3]", "result": 0.014, "unit": "µM"}
    ]},
    {"compound": "CC(C)[C@H](NC(=O)[C@H](Cc1ccc(O)cc1)NC(=O)Cc1cccc2ccccc12)C(=O)NC(C=O)Cc1ccc(O)cc1", "note": "(stereo partly specified)", "values": [
      {"measurement": "IC50", "setting": "[1]", "result": 1.2, "unit": "µM"},
      {"measurement": "IC50", "setting": "[2]", "result": 4.9, "unit": "µM"},
      {"measurement": "IC50", "setting": "[3]", "result": 0.007, "unit": "µM"}
    ]},
    {"compound": "COc1ccc(C[C@@H](C=O)NC(=O)[C@@H](NC(=O)[C@H](Cc2ccc(OC)cc2)NC(=O)CN(C)C)C(C)C)cc1", "values": [
      {"measurement": "IC50", "setting": "[1]", "result": 7.8, "unit": "µM"},
      {"measurement": "IC50", "setting": "[2]", "result": "> 100", "unit": "µM"},
      {"measurement": "IC50", "setting": "[3]", "result": 1.2, "unit": "µM"}
    ]},
    {"compound": "COc1ccc(CC(C=O)NC(=O)[C@@H](NC(=O)[C@H](Cc2ccc(O)cc2)NC(=O)Cc2cccc3ccccc23)C(C)C)cc1", "note": "(stereo partly specified)", "values": [
      {"measurement": "IC50", "setting": "[1]", "result": 6, "unit": "µM"},
      {"measurement": "IC50", "setting": "[2]", "result": 38, "unit": "µM"},
      {"measurement": "IC50", "setting": "[3]", "result": 0.018, "unit": "µM"}
    ]},
    {"compound": "CC(C)[C@H](NC(=O)[C@H](Cc1ccc(O)cc1)NC(=O)CC1CCCCC1)C(=O)NC(C=O)Cc1ccc(O)cc1", "note": "(stereo partly specified)", "values": [
      {"measurement": "IC50", "setting": "[1]", "result": 3, "unit": "µM"},
      {"measurement": "IC50", "setting": "[2]", "result": 17, "unit": "µM"},
      {"measurement": "IC50", "setting": "[3]", "result": 0.33, "unit": "µM"}
    ]},
    {"compound": "COc1ccc(CC(C=O)NC(=O)[C@@H](NC(=O)[C@H](Cc2ccc(OC)cc2)NC(=O)Cc2cccc3ccccc23)C(C)C)cc1", "note": "(stereo partly specified)", "values": [
      {"measurement": "IC50", "setting": "[1]", "result": "> 100", "unit": "µM"},
      {"measurement": "IC50", "setting": "[2]", "result": "> 100", "unit": "µM"},
      {"measurement": "IC50", "setting": "[3]", "result": 0.027, "unit": "µM"}
    ]},
    {"compound": "COc1ccc(C[C@H](NC(=O)Cc2cccc3ccccc23)C(=O)N[C@H](C(=O)NC(C=O)Cc2ccc(O)cc2)C(C)C)cc1", "note": "(stereo partly specified)", "values": [
      {"measurement": "IC50", "setting": "[1]", "result": 6, "unit": "µM"},
      {"measurement": "IC50", "setting": "[2]", "result": 31, "unit": "µM"},
      {"measurement": "IC50", "setting": "[3]", "result": 0.02, "unit": "µM"}
    ]},
    {"compound": "CCCCCC(=O)N[C@@H](Cc1ccc(O)cc1)C(=O)N[C@H](C(=O)NC(C=O)Cc1ccc(O)cc1)C(C)C", "note": "(stereo partly drawn) (Hexanoyl-Tyr-Val-[ξY]-aldehyde)", "values": [
      {"measurement": "IC50", "setting": "[1]", "result": 2, "unit": "µM"},
      {"measurement": "IC50", "setting": "[2]", "result": 20, "unit": "µM"},
      {"measurement": "IC50", "setting": "[3]", "result": 0.037, "unit": "µM"}
    ]},
    {"compound": "COc1ccc(CC(C=O)NC(=O)[C@@H](NC(=O)[C@H](Cc2ccc(OC)cc2)NC(=O)CC(C)C)C(C)C)cc1", "note": "(stereo partly specified) (Isovaleryl-Tyr(Me)-Val-[ξY](Me)-aldehyde)", "values": [
      {"measurement": "IC50", "setting": "[1]", "result": 37, "unit": "µM"},
      {"measurement": "IC50", "setting": "[2]", "result": 56, "unit": "µM"},
      {"measurement": "IC50", "setting": "[3]", "result": 0.12, "unit": "µM"}
    ]},
    {"compound": "COc1ccc(CC(C=O)NC(=O)[C@@H](NC(=O)[C@H](Cc2ccc(O)cc2)NC(=O)CC(C)C)C(C)C)cc1", "note": "(stereo partly drawn) (Isovaleryl-Tyr-Val-[ξY](Me)-aldehyde)", "values": [
      {"measurement": "IC50", "setting": "[1]", "result": 21, "unit": "µM"},
      {"measurement": "IC50", "setting": "[2]", "result": 21, "unit": "µM"},
      {"measurement": "IC50", "setting": "[3]", "result": 0.19, "unit": "µM"}
    ]},
    {"compound": "CC(C)[C@H](NC(=O)[C@H](Cc1ccc(O)cc1)NC(=O)Cc1ccccc1)C(=O)NC(C=O)Cc1ccc(O)cc1", "note": "(stereo partly drawn) (PhAc-Tyr-Val-[ξY]-aldehyde)", "values": [
      {"measurement": "IC50", "setting": "[1]", "result": 2, "unit": "µM"},
      {"measurement": "IC50", "setting": "[2]", "result": 16, "unit": "µM"},
      {"measurement": "IC50", "setting": "[3]", "result": 0.027, "unit": "µM"}
    ]},
    {"compound": "CC(C)CC(=O)N[C@@H](Cc1ccc(O)cc1)C(=O)N[C@H](C(=O)NC(C=O)Cc1ccc(O)cc1)C(C)C", "note": "(stereo partly drawn) [TYROPEPTIN A] (Isovaleryl-Tyr-Val-[ξY]-aldehyde)", "values": [
      {"measurement": "IC50", "setting": "[1]", "result": 5, "unit": "µM"},
      {"measurement": "IC50", "setting": "[2]", "result": 68, "unit": "µM"},
      {"measurement": "IC50", "setting": "[3]", "result": 0.14, "unit": "µM"}
    ]}
  ]
}
